Experiments:
Assay type in all cases: physicochemical
[1] = Solubility measurement in t-BME; conditions: organic solvent or mixture, thermodynamic from solid; solvent addition method, 10 mg sample, up to 100 mL t-BME
Method: Solubility of Form 1 of Compound 2 was measured using the solvent addition method as described in Example 14 on 10 mg of sample. t-BME was added in 1 mL aliquots up to 10 mL, then in 5 mL and 10 mL aliquots up to a total volume of 100 mL.

[2] = Solvent solubility screen for Compound 2; conditions: amorphous HCl salt; for solubility: 40 °C, thermodynamic from solid, read-out: Approximate Solubility
Method: Approximately 10 mg of amorphous HCl salt (from 500 mg batch) was placed in each of 28 vials and 5 volume aliquots of the appropriate solvent systems were added to the appropriate vial. Between each addition, the mixture was checked for dissolution and if no dissolution was apparent, the mixture was heated to ca. 40° C. and checked again. This procedure was continued until dissolution was observed or 100 volumes of solvent had been added. Then a further addition of 100 volumes was added to samples which had not dissolved. If 200 volumes of solvent were added without dissolution of the material, solubility was calculated to be below this point.

[3] = Gravimetric vapor sorption (GVS); conditions: for weight uptake / hygroscopic nature: GVS; for weight uptake: at 90% RH; for Post-GVS analysis by XRPD (form change): after GVS sorption/desorption cycle
Method: Approximately 10 mg of sample was placed into a mesh vapour sorption balance pan and loaded into an IGASorp Moisture Sorption Analyser balance by Hiden Analytical. The sample was subjected to a ramping profile from 40-90% relative humidity (RH) at 10% increments, maintaining the sample at each step until a stable weight had been achieved (98% step completion). After completion of the sorption cycle, the sample was dried using the same procedure to 0% RH, and finally taken back to the starting point of 40% RH. The weight change during the sorption/desorption cycles were plotted, allowing for the hygroscopic nature of the sample to be determined.

[4] = Competitive slurrying of Form 1 and 2 mixtures; conditions: 50:50 Form 1 and 2 slurries in acetone, ethyl acetate, methylethyl ketone, 2-propanol; 60° C. and ambient, ca. 48 hours
Method: Four solvents (acetone, ethyl acetate, methylethyl ketone, and 2-propanol) were chosen for competitive slurrying. Saturated solutions were prepared of Form 1 in the chosen solvents and added to 20 mg of 50:50 Form 1 and 2 mixtures to create slurries. The slurries were shaken at 60° C. and ambient temperature for ca. 48 hours. Solids were then isolated by centrifuge filtration and analysed by XRPD.

[5] = Dynamic vapor sorption (DVS)
Method: Approximately 10 mg of sample was placed into a mesh vapour sorption balance pan and loaded into a DVS-1 dynamic vapour sorption balance by Surface Measurement Systems. The sample was subjected to a ramping profile from 40-90% relative humidity (RH) at 10% increments, maintaining the sample at each step until a stable weight had been achieved (99.5% step completion). After completion of the sorption cycle, the sample was dried using the same procedure to 0% RH and then a second sorption cycle back to 40% RH. The weight changes during the sorption/desorption cycles were plotted, allowing for the hygroscopic nature of the sample to be determined. XRPD analysis was then carried out on any solid retained.

[6] = Aqueous solubility assessment
Method: (§1) Form 2 of Compound 2 was scaled up in two solvents. Material underwent 7-day stability testing and/or aqueous solubility assessment. The 7-day stability testing was conducted as follows. Material was exposed to environments of 40° C./75% RH, ambient light and 80° C. for 7 days and the resulting solids analysed by XRPD to determine if any changes had occurred, and by HPLC to determine purity. The aqueous solubility assessment was conducted as follows. A slurry was created in deionised water (5.1 mg of Form 2 and 300 μL of water) and shaken for ca. 24 hours at ambient temperature (ca. 22° C.). The initial pH and final pH were measured. The resulting mixture was then isolated by centrifuge filtration, and the solution obtained analysed by HPLC to calculate the concentration of material dissolved. Remaining solid was analysed by XRPD to determine if any changes had occurred on slurrying.

7-day stability testing = assay: 7-day stability testing
Method: as §1

[7] = Heating to 140° C., cooling and XRPD; conditions: heated to 140° C. and allowed to cool
Method: Material from Compound 2 (Form 1) was also heated to 140° C. and allowed to cool. The material was analysed by XRPD (FIG. 12), to determine any form change, which could be consistent with a solid-solid transition.

[8] = listed as Form 1 of Compound 2, mono-HCl salt
[9] = listed as Form 2 (Compound 2), mono-HCl salt

Cl.O=C(OC(C(F)(F)F)C(F)(F)F)N1CCN(Cc2ccc(C(F)(F)F)cc2N2CCCC2)CC1 [Compound 2, 1,1,1,3,3,3-hexafluoropropan-2-yl 4-(2-(pyrrolidin-1-yl)-4-(trifluoromethyl)benzyl)piperazine-1-carboxylate mono-HCl salt]
solubility [1]: < 0.1 mg/mL | solubility ([2]; aqueous with cosolvent or surfactant or cyclodextrin, 2-Propanol:water (50%), partial dissolution): < 5 mg/mL | solubility ([2]; aqueous with cosolvent or surfactant or cyclodextrin, Acetone:water (50%), partial dissolution): < 5 mg/mL | solubility ([2]; aqueous with cosolvent or surfactant or cyclodextrin, Methanol:water (50%)): < 5 mg/mL | solubility ([2]; organic solvent or mixture, 1,4-Dioxane): 5 mg/mL | solubility ([2]; organic solvent or mixture, 1-Butanol): < 5 mg/mL | solubility ([2]; organic solvent or mixture, 2-Ethoxyethanol, precipitated overnight): 49 mg/mL | solubility ([2]; organic solvent or mixture, 2-Methyl tetrahydrofuran): < 5 mg/mL | solubility ([2]; organic solvent or mixture, 2-Propanol): 5 mg/mL | solubility ([2]; organic solvent or mixture, Acetone): 40 mg/mL | solubility ([2]; organic solvent or mixture, Acetonitrile): 40 mg/mL | solubility ([2]; organic solvent or mixture, Anisole, partial dissolution): < 5 mg/mL | solubility ([2]; organic solvent or mixture, Dichloromethane, precipitated overnight): 70 mg/mL | solubility ([2]; organic solvent or mixture, Diisopropyl Ether): < 5 mg/mL | solubility ([2]; organic solvent or mixture, Dimethylacetamide): 99 mg/mL | solubility ([2]; organic solvent or mixture, Dimethylformamide): 99 mg/mL | solubility ([2]; organic solvent or mixture, Dimethylsulfoxide): 66 mg/mL | solubility ([2]; organic solvent or mixture, Ethanol): 33 mg/mL | solubility ([2]; organic solvent or mixture, Ethyl acetate): 5 mg/mL | solubility ([2]; organic solvent or mixture, Isopropyl acetate): < 5 mg/mL | solubility ([2]; organic solvent or mixture, Methanol): 101 mg/mL | solubility ([2]; organic solvent or mixture, Methyl isobutyl ketone, partial dissolution): < 5 mg/mL | solubility ([2]; organic solvent or mixture, Methylethyl ketone): 28 mg/mL | solubility ([2]; organic solvent or mixture, N-Methyl-2-pyrrolidone): 101 mg/mL | solubility ([2]; organic solvent or mixture, Tetrahydrofuran, precipitated overnight): 25 mg/mL | solubility ([2]; organic solvent or mixture, Toluene): < 5 mg/mL | solubility ([2]; organic solvent or mixture, tert-Amyl alcohol): < 5 mg/mL | solubility ([2]; organic solvent or mixture, tert-Butylmethyl ether): < 5 mg/mL | solubility ([2]; Water): < 5 mg/mL | concentration at which dissolution was initially observed ([2]; Acetone:water (50%), precipitated after ca. 2 h): 18000 µg/mL | weight uptake [3, 8]: < 0.1% | weight uptake [3, 9]: < 0.08% | hygroscopic nature [3, 8]: very non-hygroscopic | hygroscopic nature [3, 9]: (very) non-hygroscopic | Post-GVS analysis by XRPD (form change) [3, 8]: remain unchanged | Post-GVS analysis by XRPD (form change) [3, 9]: remained the same crystalline form | relative thermodynamic stability of polymorphs [4]: thermodynamically more stable than Form 1 | hygroscopic nature ([5]; DVS): non-hygroscopic | total uptake ([5]; DVS, at 90% RH): < 0.12% | Post-DVS XRPD analysis (form change) ([5]; after DVS cycle): remain the same crystalline form | dissociation of the salt in water [6, 8]: dissociates readily to the free base | dissociation of the salt in water [6, 9]: dissociate to the free base | solubility at 24 h ([6]; thermodynamic from solid, slurry in deionised water, ca. 24 hours, ambient (ca. 22° C.), initial pH 1.87, final pH 1.68): 0.5 mg/mL | HPLC purity after stability testing (7-day stability testing; 40° C./75% RH for 7 days): > 99.9% | solid form by XRPD after stability testing (7-day stability testing; 40° C./75% RH, ambient light and 80° C. for 7 days): remain the same form | HPLC purity after stability testing (7-day stability testing; 80° C. for 7 days): 99.9% | HPLC purity after stability testing (7-day stability testing; ambient light / ambient conditions for 7 days): > 99.9% | form change by XRPD after heating [7]: remain unchanged

— patent US11993588B2, “Crystalline forms of a MAGL inhibitor” (H. Lundbeck A/S, priority 2016, dated 2024)
